Among the test systems are Escherichia coli D31; Escherichia coli O157:H7; Bacillus subtilis C626; Escherichia coli NIHJ; Escherichia coli.
What all share (experiment): ≥ marks a high value that may be exact or a test limit, other limits are often not marked, values filed in µg/mL are converted to µM
The test system of experiment [1] is Salmonella enterica subsp. enterica serovar Typhimurium ATCC 14028.
In experiment [2] the test system is Bacillus cereus NCDC 0240.
Experiment [3] has as its system Pseudomonas aeruginosa NCDC 0105.
In experiment [4] the test system is Staphylococcus aureus ATCC 29213.
Experiment [5] deals with Listeria monocytogenes ATCC 19111.
Experiment [6] deals with Acinetobacter johnsonii NCDC 0072.
For experiment [7], the system named is Staphylococcus aureus NCDC 0111.
Experiment [8] concerns Klebsiella pneumoniae ATCC 700603.
For experiment [9], the system named is Salmonella enterica subsp. enterica serovar Typhimurium ATCC 700931.
The test system of experiment [10] is Bacillus subtilis ATCC 6051.
The test system of experiment [11] is Pseudomonas aeruginosa ATCC 27853.
Experiment [12] concerns Acinetobacter baumannii ATCC 19606.
Experiment [13] deals with Staphylococcus aureus ATCC 35556.
Experiment [14] has as its system Escherichia coli MTCC 0723.
Experiment [15] has as its system Pseudomonas aeruginosa PAO1.
Experiment [16] concerns Pectobacterium carotovorum.
Experiment [17] has as its system Staphylococcus aureus C622.
Experiment [18] has as its system Acinetobacter baumannii ATCC 17978.
In experiment [19] the test system is Staphylococcus aureus 209P.
The subject of experiment [20] is Streptococcus pyogenes COOK.
For experiment [21], the system named is Bacillus subtilis ATCC 6633.
For experiment [22], the system named is Micrococcus luteus ATCC 9341.
Experiment [23] relates to Bacillus cereus ATCC 11778.
Experiment [24] deals with Escherichia coli CCT 1457.
The test system of experiment [25] is Pseudomonas aeruginosa ATCC 15422.
The subject of experiment [26] is Staphylococcus aureus CCT 2580.
The subject of experiment [27] is Klebsiella pneumoniae XJ75297.
Experiment [28] concerns Pseudomonas aeruginosa XJ75315.
Experiment [29] concerns Shigella flexneri ATCC 12022.
In experiment [30] the test system is Staphylococcus epidermidis.
The subject of experiment [31] is Escherichia coli ATCC 25922.
For experiment [32], the system named is Escherichia coli ATCC 35218.
Experiment [33] has as its system Salmonella typhimurium SL1344.

≈ marks a conversion by molar mass, not a printed value.

Broadly, the MIC is the lowest concentration found to suppress growth. Lower therefore signals greater potency. With `CC[C@H](C)[C@H](NC(=O)[C@H](Cc1c[nH]c2ccccc12)NC(=O)[C@@H](NC(=O)[C@H](Cc1c[nH]c2ccccc12)NC(=O)[C@@H]1CCCN1C(=O)[C@@H](NC(=O)[C@H](C)N)[C@@H](C)CC)[C@@H](C)CC)C(=O)N[C@@H](Cc1c[nH]c2ccccc12)C(=O)N[C@@H](CCCN=C(N)N)C(=O)N[C@@H](CC(C)C)C(=O)N[C@@H](CC(C)C)C(=O)N[C@@H](CCCN=C(N)N)C(=O)N[C@@H](CCCCN)C(=O)NCC(=O)O` [AIPWIWIWRLLRKG], the MIC in experiment [1] stood at 6 µM (≈ 10.8 µg/mL); in experiment [2], 12.5 µM (≈ 22.6 µg/mL); in [3], 3 µM (≈ 5.42 µg/mL); in [4], 0.4 µM (≈ 0.723 µg/mL); in [5], 12.5 µM (≈ 22.6 µg/mL); in experiment [6], 12.5 µM (≈ 22.6 µg/mL). For the same compound, the MIC in experiment [7] was 0.4 µM (≈ 0.723 µg/mL); in [8] it was more than 15 µM; with Escherichia coli D31, 7.5 µM (≈ 13.6 µg/mL); in experiment [9], 15 µM (≈ 27.1 µg/mL); in [10], 0.23 µM (≈ 0.416 µg/mL); in experiment [11], 0.4 µM (≈ 0.723 µg/mL). Besides, the MIC in experiment [12] worked out at 3.75 µM (≈ 6.78 µg/mL); in experiment [13], 3.75 µM (≈ 6.78 µg/mL); in experiment [14] it was 6 µM (≈ 10.8 µg/mL); in experiment [15], 15 µM (≈ 27.1 µg/mL).
Consider `CC[C@H](C)[C@H](NC(=O)[C@H](CO)NC(=O)[C@H](CCCN=C(N)N)NC(=O)CNC(=O)[C@H](CCC(=O)O)NC(=O)[C@@H](N)CC(C)C)C(=O)N[C@@H](CO)C(=O)N[C@@H](CCCN=C(N)N)C(=O)N[C@H](C(=O)N[C@@H](CC(=O)O)C(=O)N[C@@H](CCC(=O)O)C(=O)N[C@@H](CC(C)C)C(=O)N[C@H](C(=O)N[C@@H](CCC(N)=O)C(=O)N[C@@H](CCC(N)=O)C(=O)N[C@@H](CCCN=C(N)N)C(=O)N[C@@H](CCC(N)=O)C(=O)N[C@@H](CCC(=O)O)C(=O)N[C@@H](CCCCN)C(=O)N[C@@H](CC(=O)O)C(=O)O)[C@@H](C)CC)[C@@H](C)CC` [LEGRSISRIDELIQQRQEKD], for which the MIC in experiment [16] amounted to 2.04 µM (≈ 4.92 µg/mL). In other words, the single-digit micromolar range.
Take `CC[C@H](C)[C@H](NC(=O)[C@H](Cc1c[nH]c2ccccc12)NC(=O)[C@H](CCCN=C(N)N)NC(=O)[C@H](Cc1c[nH]c2ccccc12)NC(=O)[C@H](Cc1c[nH]c2ccccc12)NC(=O)[C@H](CCCCN)NC(=O)[C@@H](N)CCCN=C(N)N)C(=O)N[C@@H](CCCCN)C(=O)N[C@@H](Cc1c[nH]c2ccccc12)C(N)=O` [RKWWRWIKW]: the minimum inhibitory concentration (MIC) is 2.5 µM (≈ 3.61 µg/mL) in [17], 5 µM (≈ 7.22 µg/mL) in experiment [18], 1.25 µM (≈ 1.8 µg/mL) in the experiment on Escherichia coli O157:H7 and 20 µM (≈ 28.9 µg/mL) with Bacillus subtilis C626.
For the compound `CC[C@H](C)[C@H](NC(=O)[C@H](CC(C)C)NC(=O)[C@H](CO)NC(=O)[C@H](Cc1ccccc1)NC(=O)[C@H](CC(C)C)NC(=O)[C@@H](N)CO)C(=O)N[C@@H](CCCCN)C(=O)N[C@@H](C)C(=O)NCC(=O)N[C@@H](C)C(=O)N[C@@H](CCCCN)C(=O)N[C@@H](Cc1ccccc1)C(=O)N[C@@H](CC(C)C)C(=O)NCC(=O)N[C@@H](CCCCN)C(=O)N[C@@H](CC(N)=O)C(=O)N[C@@H](CC(C)C)C(=O)N[C@@H](CC(C)C)C(=O)N[C@@H](CCCCN)C(=O)N[C@@H](CCC(N)=O)C(=O)NCC(=O)N[C@@H](C)C(=O)N[C@@H](CCC(N)=O)C(=O)N[C@@H](Cc1ccc(O)cc1)C(=O)N[C@@H](C)C(=O)N[C@@H](C)C(=O)N[C@H]1CSSC[C@@H](C(=O)O)NC(=O)[C@H](CCC(=O)O)NC(=O)[C@H](CCCCN)NC(=O)[C@H](CO)NC(=O)[C@H](C(C)C)NC(=O)[C@H](CCCCN)NC1=O` [SLFSLIKAGAKFLGKNLLKQGAQYAACKVSKEC], the MIC in experiment [19] turned out to be 1.78 µM (≈ 6.25 µg/mL); in experiment [20], 3.56 µM (≈ 12.5 µg/mL); in experiment [21] it was 1.78 µM (≈ 6.25 µg/mL); with Escherichia coli NIHJ, 3.56 µM (≈ 12.5 µg/mL); in [22] it was 0.444 µM (≈ 1.56 µg/mL); in [15] it was 28.4 µM (≈ 99.9 µg/mL).
`CC[C@H](C)[C@H](N)C(=O)N[C@@H](CC(N)=O)C(=O)N[C@@H](Cc1c[nH]c2ccccc12)C(=O)N[C@@H](CCCCN)C(=O)N[C@@H](C)C(=O)N[C@@H](CC(C)C)C(=O)N[C@@H](CC(C)C)C(=O)N[C@@H](CC(=O)O)C(=O)N[C@@H](C)C(=O)N[C@@H](C)C(=O)N[C@@H](CCCCN)C(=O)N[C@@H](CCCCN)C(=O)N[C@H](C(=O)N[C@@H](CC(C)C)C(=O)O)C(C)C` [INWKALLDAAKKVL]: the MIC in experiment [23] was not below 39.5 µM; in [24], not below 39.5 µM; in experiment [25] it was not below 316 µM; in [26] it was not below 158 µM.
Regarding `CC[C@H](C)[C@H](NC(=O)[C@@H](NC(=O)[C@@H]1CCCN1C(=O)[C@@H](NC(=O)[C@@H]1CCCN1C(=O)[C@H](CCCCN)NC(=O)[C@H](CCCCN)NC(=O)[C@H](CO)NC(=O)CN)C(C)C)[C@@H](C)CC)C(=O)N[C@@H](Cc1ccc(O)cc1)C(=O)N[C@@H](CS)C(=O)N[C@@H](CC(N)=O)C(=O)N[C@@H](CCCN=C(N)N)C(=O)N[C@@H](CCCN=C(N)N)C(=O)N[C@H](C(=O)NCC(=O)N[C@@H](CCCCN)C(=O)N[C@@H](CS)C(=O)N[C@@H](CCC(N)=O)C(=O)N[C@@H](CCCN=C(N)N)C(=O)N[C@@H](CCSC)C(=O)O)[C@@H](C)O` [GSKKPVPIIYCNRRTGKCQRM], the minimum inhibitory concentration (MIC) in experiment [27] is 0.41 µM (≈ 1 µg/mL); in experiment [28] it was 0.41 µM (≈ 1 µg/mL); in experiment [4], 105 µM (≈ 256 µg/mL); in [29] it was 0.103 µM (≈ 0.25 µg/mL); in experiment [30], 6.57 µM (≈ 16 µg/mL); in experiment [31], 0.41 µM (≈ 1 µg/mL). In addition, the MIC in [32] amounted to 0.41 µM (≈ 1 µg/mL); in experiment [11] it was 6.57 µM (≈ 16 µg/mL); in experiment [33], 0.41 µM (≈ 1 µg/mL); against Escherichia coli, 0.41 µM (≈ 1 µg/mL).

Values taken from DBAASP.
